In general, EC50 refers to the midpoint of the concentration-response curve. In general, CC50 refers to the concentration giving 50% cytotoxicity. In general, AC50 refers to the concentration at which the activity in the assay is half-maximal.

These results are taken from ChEMBL document CHEMBL1201862, “PubChem BioAssay data set” (2004).

Some targets named below: Cytochrome P450 3A4 (Homo sapiens, UniProt P08684); Cytochrome P450 2D6 (Homo sapiens, UniProt P10635); Cytochrome P450 2C9 (Homo sapiens, UniProt P11712).
The target in assay [1] is T1, Heat shock factor protein 1 (Mus musculus, UniProt P38532).
T1 sequence (P38532 whole entry): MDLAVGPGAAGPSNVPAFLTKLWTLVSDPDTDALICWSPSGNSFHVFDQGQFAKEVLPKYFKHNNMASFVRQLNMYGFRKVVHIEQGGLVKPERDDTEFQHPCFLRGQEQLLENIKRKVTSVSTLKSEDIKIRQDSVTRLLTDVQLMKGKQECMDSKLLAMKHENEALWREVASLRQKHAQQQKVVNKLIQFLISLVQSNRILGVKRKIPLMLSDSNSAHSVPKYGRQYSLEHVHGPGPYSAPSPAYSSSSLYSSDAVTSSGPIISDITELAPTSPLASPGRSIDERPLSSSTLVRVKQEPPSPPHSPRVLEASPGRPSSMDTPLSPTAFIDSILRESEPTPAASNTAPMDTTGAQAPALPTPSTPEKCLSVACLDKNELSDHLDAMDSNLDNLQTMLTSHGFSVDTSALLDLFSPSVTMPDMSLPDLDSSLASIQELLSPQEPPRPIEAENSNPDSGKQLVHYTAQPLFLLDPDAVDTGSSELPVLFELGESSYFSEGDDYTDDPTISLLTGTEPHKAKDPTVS
The assay is described as follows: inhibition of MG132-induced HSE-luciferase signal, confirmation, cell-based, NIH3T3, luminescence, dose retest (AID 2382).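 Further: NIH3T3 fibroblasts with HSF1-driven luciferase reporter stressed by proteasome inhibitor MG132; luminescence from HSF1-driven luciferase expression after 8 hours of MG132 stress.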 The class given is functional.

Assay [2] in a line: HEp-2 cell cytotoxicity, dose response, cytotoxicity control for RSV inhibitor project, HTS (AID 2410). The class given is functional. As to conditions: human respiratory syncytial virus.
The nature of assay [3]: inhibitors of firefly luciferase expression or activity, dose response, H4 neuroglioma cells, luminescence (AID 1990). The class given is functional, cell-based.
Assay [4] can be described thus: Luminescence Cell-Based Dose Response HTS to Identify Inhibitors of 5'UTR Stem-Loop Driven Prion Protein mRNA Translation in H4 Neuroglioblastoma Cells. [Related pubchem assays: 1827 (Project Summary), 1813 (Primary HTS)]. The class given is functional.
A short description of assay [5]: inhibitors of SNCA 5'UTR-driven reporter translation, confirmation, H4 neuroglioma cells, luminescence (AID 1988). The class given is functional, cell-based.
Assay [6] can be described thus: Luminescence Cell-Based Dose Response HTS to Identify Activators of Luciferase Translation or Activity in H4 […] Cells. [Related pubchem assays: 1829 (Project Summary), 1814 (Primary HTS)]. The class given is functional.
For a further assay, the system named is H4. The assay is described as follows: Luminescence Cell-Based Dose Response HTS to Identify Activators of 5'UTR Stem-Loop Driven Prion Protein mRNA Translation in H4 Neuroglioblastoma Cells. [Related pubchem assays: 1829 (Project Summary), 1814 (Primary HTS)]. The class given is functional. As to conditions: Homo sapiens.
In another assay the target is T2, Cytochrome P450 1A2 (Homo sapiens, UniProt P05177).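 Further: PubChem cytochrome P450 panel assay, CYP1A2 panel member.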
T2 sequence (P05177 whole entry): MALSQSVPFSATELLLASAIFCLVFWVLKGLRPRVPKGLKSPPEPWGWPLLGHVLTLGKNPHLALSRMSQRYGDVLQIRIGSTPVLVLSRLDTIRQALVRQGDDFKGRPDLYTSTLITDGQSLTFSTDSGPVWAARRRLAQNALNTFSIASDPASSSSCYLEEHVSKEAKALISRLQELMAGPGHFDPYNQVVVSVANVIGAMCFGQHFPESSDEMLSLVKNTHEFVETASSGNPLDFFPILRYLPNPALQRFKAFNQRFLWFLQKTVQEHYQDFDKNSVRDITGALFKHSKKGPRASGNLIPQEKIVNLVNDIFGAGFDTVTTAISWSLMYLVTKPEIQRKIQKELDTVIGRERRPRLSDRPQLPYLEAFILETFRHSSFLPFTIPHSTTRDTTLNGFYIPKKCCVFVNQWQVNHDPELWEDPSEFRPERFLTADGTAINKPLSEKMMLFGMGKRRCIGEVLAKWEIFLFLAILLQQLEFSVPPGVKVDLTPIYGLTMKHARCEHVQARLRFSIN

The target of the next assay is Cytochrome P450 2C19 (Homo sapiens, UniProt P33261). The assay is described as follows: Cytochrome panel assay with activity outcomes. Panel member name: p450-cyp2c19 Compounds with AC50 equal or less than 10 uM are considered active. The class given is functional. As to conditions: read-out: AC50.

Active and inactive are the calls of the source.

Cytochrome P450 2C9, sequence (P11712 whole entry): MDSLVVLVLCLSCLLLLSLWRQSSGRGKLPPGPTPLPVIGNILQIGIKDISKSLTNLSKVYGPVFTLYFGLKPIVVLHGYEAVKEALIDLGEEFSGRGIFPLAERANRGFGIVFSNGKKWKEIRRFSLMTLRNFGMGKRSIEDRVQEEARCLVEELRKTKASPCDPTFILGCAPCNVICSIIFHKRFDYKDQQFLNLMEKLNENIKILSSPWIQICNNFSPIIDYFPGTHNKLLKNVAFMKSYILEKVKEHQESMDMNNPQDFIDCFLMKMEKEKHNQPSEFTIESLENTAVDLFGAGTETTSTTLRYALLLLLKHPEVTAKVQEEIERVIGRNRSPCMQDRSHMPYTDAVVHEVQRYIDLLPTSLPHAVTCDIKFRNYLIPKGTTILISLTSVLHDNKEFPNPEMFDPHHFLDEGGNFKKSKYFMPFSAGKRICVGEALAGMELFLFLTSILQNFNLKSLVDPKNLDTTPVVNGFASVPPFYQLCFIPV
Cytochrome P450 2C19, sequence (P33261 whole entry): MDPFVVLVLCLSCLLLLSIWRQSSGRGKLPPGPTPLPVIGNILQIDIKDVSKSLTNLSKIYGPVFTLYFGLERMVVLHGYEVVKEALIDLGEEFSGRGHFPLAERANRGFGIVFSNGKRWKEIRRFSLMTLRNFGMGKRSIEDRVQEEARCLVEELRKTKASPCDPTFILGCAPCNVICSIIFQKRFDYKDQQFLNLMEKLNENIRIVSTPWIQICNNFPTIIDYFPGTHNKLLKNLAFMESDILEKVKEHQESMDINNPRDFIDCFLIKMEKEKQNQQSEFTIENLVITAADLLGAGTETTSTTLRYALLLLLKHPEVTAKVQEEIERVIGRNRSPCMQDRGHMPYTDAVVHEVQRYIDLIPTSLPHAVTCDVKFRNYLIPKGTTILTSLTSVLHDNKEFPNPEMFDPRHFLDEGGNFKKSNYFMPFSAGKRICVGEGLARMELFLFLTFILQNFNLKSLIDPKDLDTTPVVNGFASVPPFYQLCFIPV
Cytochrome P450 2D6, sequence (P10635 whole entry): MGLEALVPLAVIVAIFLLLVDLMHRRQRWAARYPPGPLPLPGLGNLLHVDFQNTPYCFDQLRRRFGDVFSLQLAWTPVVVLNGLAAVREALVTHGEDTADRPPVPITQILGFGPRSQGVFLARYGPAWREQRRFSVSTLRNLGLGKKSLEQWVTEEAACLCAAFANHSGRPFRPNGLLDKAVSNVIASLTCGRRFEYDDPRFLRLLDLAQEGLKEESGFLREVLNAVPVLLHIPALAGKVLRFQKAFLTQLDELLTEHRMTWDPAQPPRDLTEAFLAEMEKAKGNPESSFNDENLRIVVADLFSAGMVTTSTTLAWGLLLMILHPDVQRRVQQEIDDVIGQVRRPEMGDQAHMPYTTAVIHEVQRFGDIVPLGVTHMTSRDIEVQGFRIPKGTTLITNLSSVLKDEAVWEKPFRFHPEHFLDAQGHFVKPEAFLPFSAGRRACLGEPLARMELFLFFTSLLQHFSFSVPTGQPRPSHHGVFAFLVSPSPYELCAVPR
Cytochrome P450 3A4, sequence (P08684 whole entry): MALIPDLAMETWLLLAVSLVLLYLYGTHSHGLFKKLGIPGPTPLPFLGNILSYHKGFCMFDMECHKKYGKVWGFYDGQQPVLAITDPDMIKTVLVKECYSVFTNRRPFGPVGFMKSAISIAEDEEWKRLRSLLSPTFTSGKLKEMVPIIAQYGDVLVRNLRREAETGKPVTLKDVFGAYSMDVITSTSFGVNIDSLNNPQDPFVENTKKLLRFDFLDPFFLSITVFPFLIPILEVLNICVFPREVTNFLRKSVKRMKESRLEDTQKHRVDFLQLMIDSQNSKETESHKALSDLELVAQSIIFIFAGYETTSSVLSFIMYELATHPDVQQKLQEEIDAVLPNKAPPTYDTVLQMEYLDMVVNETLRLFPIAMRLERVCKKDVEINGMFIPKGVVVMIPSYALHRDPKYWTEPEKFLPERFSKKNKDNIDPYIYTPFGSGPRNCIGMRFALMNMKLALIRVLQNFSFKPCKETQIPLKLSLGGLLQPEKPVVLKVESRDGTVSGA

On to `O=C(OCC(=O)N1CCN(C(=O)c2ccco2)CC1)c1sc2cc(F)ccc2c1Cl`, for which the EC50 in assay [1] is recorded as > 195 µM (not active).
Regarding `CC(C)(C)Nc1nc(-c2ccc3c(c2)CCN3C(=O)C2CC2)cs1`, the CC50 in assay [2] was 25.2 µM (active).
With `CC(C)Cc1nc2n[nH]c(N)c2c2c1COC(C)(C)C2`, the EC50 in assay [3] is 38.2 µM (active); in [4] it was > 120 µM (not active); in assay [5], 21.4 µM (active).
Consider `O=C(c1ccc(F)cc1)N1CCCC(N2CCN(Cc3ccc4c(c3)OCO4)CC2)C1` (stereo not drawn), for which the EC50 in [1] is listed as > 195 µM (not active).
For `O=C(CN1CCC(n2nnc3ccccc32)CC1)Nc1ccc2c(c1)CCC2`, the 50% cytotoxic concentration (CC50) in [2] is 49.5 µM (active).
In the case of `N#CC1=C2SC=C(c3ccc(Br)cc3)N2CCCC1=O`, the EC50 is 0.864 µM (active) in [6] and 16.9 µM (active) in the assay on H4.
With `COc1cccc(COC(=O)c2ccc3c(c2)NC(=O)C(C)S3)c1OC` (stereo not drawn), the EC50 in [1] is > 195 µM (not active).
Take `C[C@]1(c2ccccc2)OC(C(=O)O)=CC1=O`: on Cytochrome P450 1A2, the AC50 is 39.8 µM (inconclusive).
With `CC(C)(C)OC(=O)COc1cc(O)c2c(=O)cc(-c3ccccc3)oc2c1`, the EC50 in assay [1] is recorded as > 195 µM (not active).
Regarding `CO[C@H]1[C@H](O[C@H]2O[C@@H](C)[C@@H](O[C@@H]3C[C@](C)(O)[C@H](OC(=O)CC(C)C)[C@H](C)O3)[C@@H](N(C)C)[C@@H]2O)[C@@H](CC=O)C[C@@H](C)[C@@H](O)/C=C\C=C/C[C@@H](C)OC(=O)C[C@H]1OC(C)=O`, the AC50 at Cytochrome P450 3A4 was 12.6 µM (inconclusive).
As to `O=C1OC(N2CCN(C/C=C/c3ccccc3)CC2)c2ccccc21` (stereo not drawn), the EC50 in assay [1] was > 195 µM (not active).
Regarding `COC(=O)[C@@]1(Cc2ccc(F)cc2)[C@H]2c3cc(C(=O)N4CCCC4)n(Cc4c(CO)ncc(C)c4O)c3C[C@H]2CN1C(=O)c1ccccc1`, the values for the AC50 at Cytochrome P450 2C19 and on Cytochrome P450 1A2 were 39.8 µM (inconclusive) and 20 µM (inconclusive), respectively.
For the compound `N#Cc1nc(-c2ccco2)oc1N1CCN(Cc2ccccc2)CC1`, the EC50 in [1] is recorded as > 195 µM (not active).
As to `Cn1c(SCC(=O)NCc2ccccc2)nc2ccccc21`, the EC50 in [1] is > 195 µM (not active).
Turning to `O=c1c(-c2cccc(Cl)c2)nc2cncnc2n1Cc1ccccc1Cl`, the AC50 is 15.8 µM (inconclusive) on Cytochrome P450 2D6 and 12.6 µM (inconclusive) at Cytochrome P450 3A4.
As for `COC(=O)c1cccc(NC(=O)CCCOc2ccccc2)c1`, at Cytochrome P450 3A4, the AC50 is 12.6 µM (inconclusive).
Turning to `Cc1ccc(NC(=O)NCC(c2cccnc2)N2CCOCC2)cc1` (stereo not drawn), in [1], the EC50 was > 195 µM (not active).
On to `COCC(=O)N1CCC2(CCCN(c3ccccc3)C2)CC1`, for which the AC50 on Cytochrome P450 3A4 is 7.94 µM (inconclusive).
With `CN(C)c1ncc2nc(-c3cccs3)c(=O)n(CCc3ccccc3)c2n1`, the AC50 on Cytochrome P450 1A2 was 5.01 µM (inconclusive).
As to `Cc1cccc(N(C)C(=O)c2cc3cc4ccc(C)cc4nc3o2)c1`, the EC50 in assay [6] is 1.69 µM (active); in the assay on H4 it was 14.3 µM (active).
Take `COc1ccc(C2SCC(=O)Nc3c2c(C)nn3C2CCOC(C)(C)C2)cc1` (stereo not drawn): the AC50 on Cytochrome P450 2C19 was 39.8 µM (inconclusive); on Cytochrome P450 3A4, 28.2 µM (inconclusive); at Cytochrome P450 2C9 it was 25.1 µM (inconclusive).
`Cc1ccccc1Cn1c(Cc2ccccc2)nc2ccccc21`: the figures for the AC50 on Cytochrome P450 2D6, on Cytochrome P450 1A2 and on Cytochrome P450 3A4 were 31.6 µM (inconclusive), 17.8 µM (inconclusive) and 31.6 µM (inconclusive), respectively.
Take `Cc1ccccc1N(C(=O)Cn1nnc(-c2cccs2)n1)C(C(=O)NCCC(C)C)c1ccco1` (stereo not drawn): the CC50 in [2] was 40.4 µM (active).
Regarding `Cc1noc(C)c1C(=O)N1CCC2(CC1)CCN(c1ccncc1)CC2`, the AC50 was 12.6 µM (inconclusive) at Cytochrome P450 2D6 and 3.98 µM (inconclusive) at Cytochrome P450 3A4.
With `Nc1nc(O)c(Br)c(Oc2ccc(F)cc2)n1`, the EC50 in [1] is 35.4 µM (active).
The same measure, in the same setting: for `COc1ccc(NC(=O)CSc2nc(C)cs2)cc1` the value was > 195 µM (not active).
In the case of `CN(CCC#N)C(=O)c1ccc(CNS(=O)(=O)c2ccc(F)cc2)cc1`, the AC50 on Cytochrome P450 1A2 was 2 µM (inconclusive); at Cytochrome P450 3A4, 0.112 µM (inconclusive); at Cytochrome P450 2C9, 10 µM (inconclusive).
As to `Nc1ccc(C#Cc2c(-c3ccsc3)oc3ccc(N4CCOCC4)cc23)cc1`, the CC50 in assay [2] was 31.5 µM (active).
For `CN(C)c1ncc2nc(-c3cccc(C#N)c3)c(=O)n(C[C@H]3CCCO3)c2n1`, the AC50 on Cytochrome P450 2D6 is 2.51 µM (inconclusive); at Cytochrome P450 1A2, 3.16 µM (inconclusive).
As for `CC(C)CC(C(=O)OCC(=O)Nc1ncc(Cl)cc1Cl)N1C(=O)c2ccccc2C1=O` (stereo not drawn), the results for the AC50 at Cytochrome P450 1A2 and on Cytochrome P450 3A4 were 11.2 µM (inconclusive) and 31.6 µM (inconclusive), respectively.
Regarding `C[C@H](CN(C)C)C(C#N)(c1ccccc1)c1ccccc1`, the AC50 at Cytochrome P450 2D6 was 3.16 µM (inconclusive); at Cytochrome P450 3A4, 3.98 µM (inconclusive).
On to `COc1ccc(-c2nc(CNS(=O)(=O)c3ccc(OC)c(OC)c3)cs2)cc1`, for which the EC50 in assay [1] is > 195 µM (not active).
For `COc1ccc(NC(=O)C2CCN(C(=O)Nc3ccc(C)cc3)CC2)cc1OC`, the EC50 in assay [3], in assay [4] and in assay [5] was > 120 µM (not active) in each case.
As for `CCC(=O)Nc1ccc(NC(=O)Cc2ccccc2)cn1`, the EC50 in assay [1] was > 195 µM (not active).
In the case of `COc1ccc(-c2cc(C(=O)Nc3cc(OC)c(OC)c(OC)c3)no2)cc1OC`, the results for the AC50 on Cytochrome P450 2C19 and on Cytochrome P450 3A4 were 39.8 µM (inconclusive) and 10 µM (inconclusive), respectively.
`COc1ccc(NC(=O)NCc2cccn2C)c(OC)c1`: the values for the AC50 at Cytochrome P450 2D6 and on Cytochrome P450 3A4 were 0.501 µM (inconclusive) and 22.4 µM (inconclusive), respectively.
Turning to `O=C(COc1ccc2ccccc2c1)N1c2ccccc2Sc2ccccc21`, the CC50 in [2] was 26.8 µM (active).
Turning to `Fc1ccc(C2CC(c3ccco3)=NN2c2ccccc2)cc1` (stereo not drawn), the AC50 at Cytochrome P450 3A4 is 0.0251 µM (inconclusive).
On the same count and under the same terms, for `O=c1c(-c2ccccc2)nc2cnc(N3CCOCC3)nc2n1C[C@H]1CCCO1` the value was 39.8 µM (inconclusive).
Regarding `COc1ccc(-c2nc(C#N)c(N3CCC(C(N)=O)CC3)o2)cc1OC`, the AC50 at Cytochrome P450 2C19 is 22.4 µM (inconclusive); on Cytochrome P450 1A2, 12.6 µM (inconclusive); on Cytochrome P450 3A4, 39.8 µM (inconclusive).
In the case of `CSc1nc(C)cc(SC(C(C)=O)C(=O)Nc2ccccc2)n1` (stereo not drawn), the AC50 on Cytochrome P450 1A2 was 15.8 µM (inconclusive); at Cytochrome P450 3A4 it was 14.1 µM (inconclusive); on Cytochrome P450 2C9, 1.58 µM (inconclusive).
With `O=C(N/N=C/c1cccnc1)c1ccc2c(c1)OCCO2`, in [1], the EC50 is > 195 µM (not active).
As for `O=C(N/N=C/c1cc([N+](=O)[O-])ccc1Cl)c1cnccn1`, the EC50 in assay [3] is > 120 µM (not active); in [4], 9.8 µM (active); in [5], > 120 µM (not active).
Turning to `C/C(=N\NC(=O)COc1ccc(C)cc1C(C)C)c1ccc(-n2ccnc2)cc1`, the CC50 in assay [2] was 24.3 µM (active).
As to `COC(=O)c1ccc(/C=N\NC(=O)c2ccc(C)cc2Cl)cc1`, the AC50 at Cytochrome P450 1A2 is 10 µM (inconclusive).
Same read-out and setting: for `CC1(C)N(O)C(c2ccc(C(=O)O)cc2)=[N+]([O-])C1(C)C` the value was 31.6 µM (inconclusive).
`CCOC(=O)c1ccc(NC(=O)NS(=O)(=O)c2ccc(C)cc2)cc1`: the EC50 in assay [1] is > 195 µM (not active).
